Results from patent US20160244436A1, “NOVEL FUNCTIONALIZED 5-(PHENOXYMETHYL)-1,3-DIOXANE ANALOGS EXHIBITING CYTOCHROME P450 INHIBITION AND THEIR METHOD OF USE” (CORTENDO AB (PUBL), priority 2013, published 2016).

Tests used:
recombinant CYP-17 = molecular target: T1, recombinant CYP-17 (Homo sapiens, UniProt P05093); assay: Cyp17 assay: AD293 cells over-expressing recombinant CYP-17, 3H-acetic acid release from [21-3H] 17α-hydroxyl-Pregnenolone; format: cell-based
T1 construct: expressed in transfected cells; host or cells: AD293
T1 sequence (P05093 1-508): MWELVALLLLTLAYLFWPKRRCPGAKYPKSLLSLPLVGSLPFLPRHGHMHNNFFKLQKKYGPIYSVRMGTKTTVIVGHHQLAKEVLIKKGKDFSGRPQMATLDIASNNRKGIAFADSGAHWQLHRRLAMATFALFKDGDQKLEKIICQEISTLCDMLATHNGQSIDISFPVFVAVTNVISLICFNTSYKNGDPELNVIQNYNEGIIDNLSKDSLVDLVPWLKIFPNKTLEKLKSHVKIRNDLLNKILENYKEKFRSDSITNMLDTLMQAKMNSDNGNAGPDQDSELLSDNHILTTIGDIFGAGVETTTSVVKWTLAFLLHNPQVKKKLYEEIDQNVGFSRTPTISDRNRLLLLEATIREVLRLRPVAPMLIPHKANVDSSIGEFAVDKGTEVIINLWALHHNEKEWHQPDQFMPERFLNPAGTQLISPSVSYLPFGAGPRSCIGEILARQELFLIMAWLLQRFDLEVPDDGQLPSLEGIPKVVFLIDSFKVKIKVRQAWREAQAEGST
Protocol: Cyp17 assay protocol: AD293 cells that stably over-express recombinant CYP-17 were seeded in 96 well plates coated with poly D-lysine (15,000 cell per well) and incubated at 37° C. for 24 hours in Dulbecco's Modified Eagle Medium (DMEM) with Fetal Bovine Serum (FBS) that is stripped of hormones by charcoal treatment. The media is then removed, the cells are washed once with Phosphate buffer saline solution, and 50 μL Dulbecco's Modified Eagle Medium (DMEM) with Fetal Bovine Serum (FBS) that is stripped of hormones by charcoal treatment is added. Compounds of the disclosure are then added to the wells in eight concentration spanning 10 μM to 4.5 nM, and the plates are incubated for an additional 60 minutes at 37° C. [21-^3H] 17α-hydroxyl-Pregnenolone is then added (50 nCi per well, 31.25 nM) and the plates are incubated for an additional 4 hours at 37° C. The media is then collected, 200 μL, of chloroform is added, and the mixture is shaken for 1 hour. The aqueous layer is then separated and analyzed for the presence of ^3H-acetic acid using a Perkin Elmer Topcount NXT to determine IC50s of the compounds of the disclosure.

Cyp3A4 = Cyp3A4 (Homo sapiens, UniProt P08684); assay: Cyp3A4 off-target counter screen; format: in vitro ADME; conditions: off-target enzyme
Chain of Cyp3A4 (P08684 whole entry): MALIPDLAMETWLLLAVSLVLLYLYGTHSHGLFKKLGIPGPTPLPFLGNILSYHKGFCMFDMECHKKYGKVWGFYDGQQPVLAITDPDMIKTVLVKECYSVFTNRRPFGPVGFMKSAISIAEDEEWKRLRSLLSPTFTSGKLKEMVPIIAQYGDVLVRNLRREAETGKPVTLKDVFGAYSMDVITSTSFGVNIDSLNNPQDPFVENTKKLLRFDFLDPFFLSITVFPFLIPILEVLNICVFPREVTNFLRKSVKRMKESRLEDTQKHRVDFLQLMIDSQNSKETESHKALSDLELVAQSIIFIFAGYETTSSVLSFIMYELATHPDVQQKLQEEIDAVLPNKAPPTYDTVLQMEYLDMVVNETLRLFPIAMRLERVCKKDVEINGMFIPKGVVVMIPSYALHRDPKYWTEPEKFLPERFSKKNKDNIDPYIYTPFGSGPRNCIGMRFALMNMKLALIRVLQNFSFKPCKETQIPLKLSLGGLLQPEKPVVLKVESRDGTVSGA

## CC(=O)N1CCN(c2ccc(CO[C@H]3CO[C@](Cn4ccnc4)(c4ccc(Cl)cc4Cl)OC3)cc2)CC1 [drawing 112]
Recombinant CYP-17
  IC50: 8 nM
Cyp3A4
  IC50: 109 nM
